Patent US5527907A, “Macrolide immunomodulators” (Abbott Laboratories, priority 1994, dated 1996)
Where two headings read alike, the source gives them in different places. One block for each compound: values may come before it.

What was measured:
[1] = system: human mixed lymphocyte reaction; experiment: human mixed lymphocyte reaction (MLR) assay; assay type: cell-based
Description: The immunosuppressant activity of the compounds of the present invention was determined using the human mixed lymphocyte reaction (MLR) assay described by Kino, T. et al. in Transplantation Proceedings, XIX(5):36-39,Suppl. 6 (1987).

FKBP-12 = conditions: cited from earlier work
[2] = system: formation of IgE-like antibodies; conditions: cited from earlier work
T-cell activation = conditions: cited from earlier work
adjuvant arthritis = conditions: model for rheumatoid arthritis; cited from earlier work
[3] = system: experimental allergic encephalomyelitis; conditions: model for multiple sclerosis; cited from earlier work
Candida albicans = conditions: particularly against Candida albicans, both in vitro and in vivo; cited from earlier work
[4] = alone or in combination with picibanil; cited from earlier work
[5] = system: organ grafts in histoincompatible rodents; conditions: cited from earlier work
[6] = Mixed Leukocyte Response (MLR), Table 1, read-out: IC50

IC50 [1, 6]: 0.13 nM
SMILES: CO[C@H]1C[C@@H]2CC[C@@H](C)[C@@](O)(O2)C(=O)C(=O)N2CCCC[C@H]2C(=O)O[C@H]([C@H](C)C[C@@H]2CC[C@@H](OC(=O)N3CCOCC3)[C@H](OC)C2)CC(=O)[C@H](C)/C=C(\C)[C@@H](O)[C@@H](OC)C(=O)[C@H](C)C[C@H](C)/C=C/C=C/C=C/1C [Example 3]

SMILES: CO[C@H]1C[C@@H]2CC[C@@H](C)[C@@](O)(O2)C(=O)C(=O)N2CCCC[C@H]2C(=O)O[C@H]([C@H](C)C[C@@H]2CC[C@H](O)[C@H](OC)C2)CC(=O)[C@H](C)/C=C(\C)[C@@H](O)[C@@H](OC)C(=O)[C@H](C)C[C@H](C)/C=C/C=C/C=C/1C [Example 10, 42-epi-rapamycin]
IC50 [1]: 0.03 nM

IC50 [1, 6]: 0.15 nM
SMILES: CO[C@H]1C[C@@H]2CC[C@@H](C)[C@@](O)(O2)C(=O)C(=O)N2CCCC[C@H]2C(=O)O[C@H]([C@H](C)C[C@@H]2CC[C@@H](OC(=O)N(C)OC)[C@H](OC)C2)CC(=O)[C@H](C)/C=C(\C)[C@@H](O)[C@@H](OC)C(=O)[C@H](C)C[C@H](C)/C=C/C=C/C=C/1C [Example 17]

IC50 [1, 6]: 0.03 nM
SMILES: CO[C@H]1C[C@@H]2CC[C@@H](C)[C@@](O)(O2)C(=O)C(=O)N2CCCC[C@H]2C(=O)O[C@H]([C@H](C)C[C@@H]2CC[C@H](Sc3ncc[nH]3)[C@H](OC)C2)CC(=O)[C@H](C)/C=C(\C)[C@@H](O)[C@@H](OC)C(=O)[C@H](C)C[C@H](C)/C=C/C=C/C=C/1C [Example 38]

IC50 [1, 6]: 0.14 nM
SMILES: CO[C@H]1C[C@@H]2CC[C@@H](C)[C@@](O)(O2)C(=O)C(=O)N2CCCC[C@H]2C(=O)O[C@H]([C@H](C)C[C@@H]2CC[C@H](Sc3nccn3C)[C@H](OC)C2)CC(=O)[C@H](C)/C=C(\C)[C@@H](O)[C@@H](OC)C(=O)[C@H](C)C[C@H](C)/C=C/C=C/C=C/1C [Example 39]

IC50 [1, 6]: 0.96 nM
SMILES: CO[C@H]1C[C@@H]2CC[C@@H](C)[C@@](O)(O2)C(=O)C(=O)N2CCCC[C@H]2C(=O)O[C@H]([C@H](C)C[C@@H]2CC[C@H](N=[N+]=[N-])[C@H](OC)C2)CC(=O)[C@H](C)/C=C(\C)[C@@H](O)[C@@H](OC)C(=O)[C@H](C)C[C@H](C)/C=C/C=C/C=C/1C [Example 50]

IC50 [1, 6]: 0.12 nM
SMILES: CO[C@H]1C[C@@H]2CC[C@@H](C)[C@@](O)(O2)C(=O)C(=O)N2CCCC[C@H]2C(=O)O[C@H]([C@H](C)C[C@@H]2CC[C@H](n3ccc(=O)cc3)[C@H](OC)C2)CC(=O)[C@H](C)/C=C(\C)[C@@H](O)[C@@H](OC)C(=O)[C@H](C)C[C@H](C)/C=C/C=C/C=C/1C [Example 71]

IC50 [1, 6]: 0.99 nM
SMILES: CO[C@H]1C[C@@H]2CC[C@@H](C)[C@@](O)(O2)C(=O)C(=O)N2CCCC[C@H]2C(=O)O[C@H]([C@H](C)C[C@@H]2CC[C@H](n3ccccc3=O)[C@H](OC)C2)CC(=O)[C@H](C)/C=C(\C)[C@@H](O)[C@@H](OC)C(=O)[C@H](C)C[C@H](C)/C=C/C=C/C=C/1C [Example 72]

IC50 [1, 6]: 1.81 nM
SMILES: CO[C@H]1C[C@@H]2CC[C@@H](C)[C@@](O)(O2)C(=O)C(=O)N2CCCC[C@H]2C(=O)O[C@H]([C@H](C)C[C@@H]2CC[C@H](OC)[C@H](OC)C2)CC(=O)[C@H](C)/C=C(\C)[C@@H](O)[C@@H](OC)C(=O)[C@H](C)C[C@H](C)/C=C/C=C/C=C/1C [Example 74]

SMILES: C=CC[C@@H]1/C=C(\C)C[C@H](C)C[C@H](OC)[C@H]2O[C@@](O)(C(=O)C(=O)N3CCCC[C@H]3C(=O)O[C@H](/C(C)=C/[C@@H]3CC[C@@H](O)[C@H](OC)C3)[C@H](C)[C@@H](O)CC1=O)[C@H](C)C[C@@H]2OC [FK-506]
binding to FKBP-12 (FKBP-12): binds to FKBP-12

SMILES: CO[C@H]1C[C@@H]2CC[C@@H](C)[C@@](O)(O2)C(=O)C(=O)N2CCCC[C@H]2C(=O)O[C@H]([C@H](C)C[C@@H]2CC[C@@H](O)[C@H](OC)C2)CC(=O)[C@H](C)/C=C(\C)[C@@H](O)[C@@H](OC)C(=O)[C@H](C)C[C@H](C)/C=C/C=C/C=C/1C [rapamycin]
inhibition of formation of IgE-like antibodies [2]: effectively inhibit the formation of IgE-like antibodies
inhibition of T-cell activation (T-cell activation): inhibit T-cell activation
effectiveness as an immunosuppressant (adjuvant arthritis): effective as an immunosuppressant
effectiveness as an immunosuppressant [3]: effective as an immunosuppressant
antifungal activity (Candida albicans): antifungal activity
antitumor activity [4]: antitumor activity
survival time of organ grafts [5]: prolong survival time of organ grafts
binding to FKBP-12 (FKBP-12): binds to FKBP-12
